Test results taken from patent US20190307776A1, “AZA-S[…] HUMAN IMMUNODEFICIENCY VIRUS REPLICATION” (priority 2016, published 2019).

Test system: recombinant NL4-3 virus
Assay: HIV cell culture assay
Type: cell-based
Details: Human immunodeficiency virus 1, NL43, MT2
Method: HIV cell culture assay—MT-2 cells and 293T cells were obtained from the NIH AIDS Research and Reference Reagent Program. MT-2 cells were propagated in RPMI 1640 media supplemented with 10% heat inactivated fetal bovine serum, 100 […]. The 293T cells were propagated in DMEM media supplemented with 10% heat inactivated fetal bovine serum (FBS), 100 units/ml penicillin G and 100 μg/ml streptomycin. The proviral DNA clone of NL4-3 was obtained from the NIH AIDS Research and Reference Reagent Program. A recombinant NL4-3 virus, in which a section of the nef gene from NL4-3 was replaced with the Renilla luciferase gene, was used as a reference virus. In addition, residue Gag P373 was converted to P373S. Briefly, the recombinant virus was prepared by transfection of the altered proviral clone of NL4-3. Transfections were performed in 293T cells using LipofectAMINE PLUS from Invitrogen (Carlsbad, Calif.), according to manufacturer's instruction. The virus was titered in MT-2 cells using luciferase enzyme activity as a marker. Luciferase was quantitated using the Dual Luciferase kit from Promega (Madison, Wis.), with modifications to the manufacturer's protocol. The diluted Passive Lysis solution was pre-mixed with the re-suspended Luciferase Assay Reagent and the re-suspended Stop & Glo Substrate (2:1:1 ratio). Fifty (50) μL of the mixture was added to each aspirated well on assay plates and luciferase activity was measured immediately on a Wallac TriLux (Perkin-Elmer). Antiviral activities of inhibitors toward the recombinant virus were quantified by measuring luciferase activity in cells infected for 4-5 days with NLRluc recombinants in the presence serial dilutions of the inhibitor.

Row | SMILES | EC50 [nM]
1 | C=C(C)[C@@H]1CC[C@]2(CO)CC[C@]3(C)[C@H](CC[C@@H]4[C@@]5(C)CCCN(S(=O)(=O)c6ccc(C(=O)O)cc6)C(C)(C)C5CC[C@]43C)[C@@H]12 (stereo partly drawn) [Example 14, 4-(((7aR,7bR,9aS,12R,12aR,12bR,14aR,14bR)-9a-(hydroxymethyl)-5,5,7a,7b,14b-pentamethyl-12-(prop-1-en-2-yl)icosahydrocyclopenta[7,8]phenanthro[2,1-c]azepin-4(1H)-yl)sulfonyl)benzoic acid] | 1700
2 | C=C(C)[C@@H]1CC[C@]2(CNCCCN3CCS(=O)(=O)CC3)CC[C@]3(C)[C@H](CC[C@@H]4[C@@]5(C)CCN(c6ccc(C(=O)O)nc6)C(C)(C)[C@@H]5CC[C@]43C)[C@@H]12 [Example 44, 5-((4aR,6aR,6bR,8aS,11R,11aR,11bR,13aR,13bR)-8a-(((3-(1,1-dioxidothiomorpholino)propyl)amino)methyl)-4,4,6a,6b,13b-pentamethyl-11-(prop-1-en-2-yl)hexadecahydro-1H-cyclopenta[5,6]naphtho[2,1-f]isoquinolin-3(2H,4H,13bH)-yl)picolinic acid] | 7
3 | C=C(C)[C@@H]1CC[C@]2(CNCCCN3CCS(=O)(=O)CC3)CC[C@]3(C)[C@H](CC[C@@H]4[C@@]5(C)CCN(C(=O)CC(C)(C)CC(=O)O)C(C)(C)[C@@H]5CC[C@]43C)[C@@H]12 [Example 24, 5-((4aR,6aR,6bR,8aS,11R,11aR,11bR,13aR,13bR)-8a-(((3-(1,1-dioxidothiomorpholino)propyl)amino)methyl)-4,4,6a,6b,13b-pentamethyl-11-(prop-1-en-2-yl)icosahydro-3H-cyclopenta[5,6]naphtho[2,1-f]isoquinolin-3-yl)-3,3-dimethyl-5-oxopentanoic acid] | 120
4 | C=C(C)[C@@H]1CC[C@]2(CNCCCN3CCS(=O)(=O)CC3)CC[C@]3(C)[C@H](CC[C@@H]4[C@@]5(C)CCN(C(=O)CCC(C)(C)C(=O)O)C(C)(C)[C@@H]5CC[C@]43C)[C@@H]12 [Example 25, 5-((4aR,6aR,6bR,8aS,11R,11aR,11bR,13aR,13bR)-8a-(((3-(1,1-dioxidothiomorpholino)propyl)amino)methyl)-4,4,6a,6b,13b-pentamethyl-11-(prop-1-en-2-yl)hexadecahydro-1H-cyclopenta[5,6]naphtho[2,1-f]isoquinolin-3(2H,4H,13bH)-yl)-2,2-dimethyl-5-oxopentanoic acid] | 120
5 | C=C(C)[C@@H]1CC[C@]2(CO)CC[C@]3(C)[C@H](CC[C@@H]4[C@@]5(C)CCCN(C(=O)CCC(=O)O)C(C)(C)C5CC[C@]43C)[C@@H]12 (stereo partly drawn) [Example 3, 4-((7aR,7bR,9aS,12R,12aR,12bR,14aR,14bR)-9a-(hydroxymethyl)-5,5,7a,7b,14b-pentamethyl-12-(prop-1-en-2-yl)icosahydrocyclopenta[7,8]phenanthro[2,1-c]azepin-4(1H)-yl)-4-oxobutanoic acid] | > 8000
6 | C=C(C)[C@@H]1CC[C@]2(CNCCCN3CCS(=O)(=O)CC3)CC[C@]3(C)[C@H](CC[C@@H]4[C@@]5(C)CCN(CC(=O)O)C(C)(C)[C@@H]5CC[C@]43C)[C@@H]12 [Example 33, 2-((4aR,6aR,6bR,8aS,11R,11aR,11bR,13aR,13bR)-8a-(((3-(1,1-dioxidothiomorpholino)propyl)amino)methyl)-4,4,6a,6b,13b-pentamethyl-11-(prop-1-en-2-yl)hexadecahydro-1H-cyclopenta[5,6]naphtho[2,1-f]isoquinolin-3(2H,4H,13bH)-yl)acetic acid] | > 3000
7 | C=C(C)[C@@H]1CC[C@]2(CNCCCN3CCS(=O)(=O)CC3)CC[C@]3(C)[C@H](CC[C@@H]4[C@@]5(C)CCN(c6ccc(C#N)cn6)C(C)(C)[C@@H]5CC[C@]43C)[C@@H]12 [Example 40, 6-((4aR,6aR,6bR,8aS,11R,11aR,11bR,13aR,13bR)-8a-(((3-(1,1-dioxidothiomorpholino)propyl)amino)methyl)-4,4,6a,6b,13b-pentamethyl-11-(prop-1-en-2-yl)hexadecahydro-1H-cyclopenta[5,6]naphtho[2,1-f]isoquinolin-3(2H,4H,13bH)-yl)nicotinonitrile] | 760
8 | C=C(C)[C@@H]1CC[C@]2(CN(C)CCCN3CCS(=O)(=O)CC3)CC[C@]3(C)[C@H](CC[C@@H]4[C@@]5(C)CCN(c6ccc(C(=O)O)nc6)C(C)(C)[C@@H]5CC[C@]43C)[C@@H]12 [Example 51, 5-((4aR,6aR,6bR,8aS,11R,11aR,11bR,13aR,13bR)-8a-(((3-(1,1-dioxidothiomorpholino)propyl)(methyl)amino)methyl)-4,4,6a,6b,13b-pentamethyl-11-(prop-1-en-2-yl)hexadecahydro-1H-cyclopenta[5,6]naphtho[2,1-f]isoquinolin-3(2H,4H,13bH)-yl)picolinic acid] | 26
9 | C=C(C)[C@@H]1CC[C@]2(CNCCCN3CCS(=O)(=O)CC3)CC[C@]3(C)[C@H](CC[C@@H]4[C@@]5(C)CCN(CC(=O)NC(C)(C)C(=O)O)C(C)(C)[C@@H]5CC[C@]43C)[C@@H]12 [Example 35, 2-(2-((4aR,6aR,6bR,8aS,11R,11aR,11bR,13aR,13bR)-8a-(((3-(1,1-dioxidothiomorpholino)propyl)amino)methyl)-4,4,6a,6b,13b-pentamethyl-11-(prop-1-en-2-yl)hexadecahydro-1H-cyclopenta[5,6]naphtho[2,1-f]isoquinolin-3(2H,4H,13bH)-yl)acetamido)-2-methylpropanoic acid] | > 3000
10 | C=C(C)[C@@H]1CC[C@]2(CNCCCN3CCS(=O)(=O)CC3)CC[C@]3(C)[C@H](CC[C@@H]4[C@@]5(C)CCN(C(=O)Cc6cccc(CC(=O)O)c6)C(C)(C)[C@@H]5CC[C@]43C)[C@@H]12 [Example 27, 2-(3-(2-((4aR,6aR,6bR,8aS,11R,11aR,11bR,13aR,13bR)-8a-(((3-(1,1-dioxidothiomorpholino)propyl)amino)methyl)-4,4,6a,6b,13b-pentamethyl-11-(prop-1-en-2-yl)hexadecahydro-1H-cyclopenta[5,6]naphtho[2,1-f]isoquinolin-3(2H,4H,13bH)-yl)-2-oxoethyl)phenyl)acetic acid] | 300
11 | C=C(C)[C@@H]1CC[C@]2(CO)CC[C@]3(C)[C@H](CC[C@@H]4[C@@]5(C)CCCN(S(=O)(=O)c6ccc(C)c(C(=O)O)c6)C(C)(C)C5CC[C@]43C)[C@@H]12 (stereo partly drawn) [Example 16, 5-(((7aR,7bR,9aS,12R,12aR,12bR,14aR,14bR)-9a-(hydroxymethyl)-5,5,7a,7b,14b-pentamethyl-12-(prop-1-en-2-yl)icosahydrocyclopenta[7,8]phenanthro[2,1-c]azepin-4(1H)-yl)sulfonyl)-2-methylbenzoic acid] | > 8000
12 | C=C(C)[C@@H]1CC[C@]2(CNCCCN3CCS(=O)(=O)CC3)CC[C@]3(C)[C@H](CC[C@@H]4[C@@]5(C)CCN(c6ccc(C(=O)O)c(F)c6)C(C)(C)[C@@H]5CC[C@]43C)[C@@H]12 [Example 45, 4-((4aR,6aR,6bR,8aS,11R,11aR,11bR,13aR,13bR)-8a-(((3-(1,1-dioxidothiomorpholino)propyl)amino)methyl)-4,4,6a,6b,13b-pentamethyl-11-(prop-1-en-2-yl)icosahdro-3H-cyclopenta[5,6]naphtho[2,1-f]isoquinolin-3-yl)-2-fluorobenzoic acid] | 20
13 | C=C(C)[C@@H]1CC[C@]2(CNCCCN3CCS(=O)(=O)CC3)CC[C@]3(C)[C@H](CC[C@@H]4[C@@]5(C)CCN(c6ccc(C(N)=O)cn6)C(C)(C)[C@@H]5CC[C@]43C)[C@@H]12 [Example 41, 6-((4aR,6aR,6bR,8aS,11R,11aR,11bR,13aR,13bR)-8a-(((3-(1,1-dioxidothiomorpholino)propyl)amino)methyl)-4,4,6a,6b,13b-pentamethyl-11-(prop-1-en-2-yl)hexadecahydro-1H-cyclopenta[5,6]naphtho[2,1-f]isoquinolin-3(2H,4H,13bH)-yl)nicotinamide] | 400
14 | C=C(C)[C@@H]1CC[C@]2(CN(C)CCCN3CCS(=O)(=O)CC3)CC[C@]3(C)[C@H](CC[C@@H]4[C@@]5(C)CCN(CC(=O)NC(C)(C)C(=O)O)C(C)(C)[C@@H]5CC[C@]43C)[C@@H]12 [Example 36, 2-(2-((4aR,6aR,6bR,8aS,11R,11aR,11bR,13aR,13bR)-8a-(((3-(1,1-dioxidothiomorpholino)propyl)(methyl)amino)methyl)-4,4,6a,6b,13b-pentamethyl-11-(prop-1-en-2-yl)hexadecahydro-1H-cyclopenta[5,6]naphtho[2,1-f]isoquinolin-3(2H,4H,13bH)-yl)acetamido)-2-methylpropanoic acid] | 1300
15 | C=C(C)[C@@H]1CC[C@]2(CO)CC[C@]3(C)[C@H](CC[C@@H]4[C@@]5(C)CCCN(C(=O)CC(=O)O)C(C)(C)C5CC[C@]43C)[C@@H]12 (stereo partly drawn) [Example 1, 3-((7aR,7bR,9aS,12R,12aR,12bR,14aR,14bR)-9a-(hydroxymethyl)-5,5,7a,7b,14b-pentamethyl-12-(prop-1-en-2-yl)icosahydrocyclopenta[7,8]phenanthro[2,1-c]azepin-4(1H)-yl)-3-oxopropanoic acid] | 2310
